Laboratory results reported in patent US8252837B2 (TMRC Co., Ltd., priority 2007, dated 2012).

Experiments:
[1] = test system: IL-6 dependent RARα(+) human multiple myeloma cells U266; details: SCID mice, oral 10 mg/kg/day for 28 consecutive days, FIG. 2
[2] = Oil component (base) solubility test; assay type: physicochemical; details: in propylene glycol fatty acid ester
Experimental: Oil Component (Base) Solubility Test
(75% humidity), and at 60° C.

Row | solubility and stability in the dissolved solution [2] | SMILES | growth of U266 cells (volume of tumor) [1]
1 |  | CC1=C(/C=C/C(C)=C/C=C/C(C)=C/C(=O)O)C(C)(C)CCC1 [ATRA, all-trans retinoic acid] | inhibited the growth
2 | optimum | CC1(C)CCC(C)(C)c2cc(NC(=O)c3ccc(C(=O)O)cc3)ccc21 [Tamibarotene, 4-[(5,6,7,8-tetrahydro-5,5,8,8-tetramethyl-2-naphthalenyl)carbamoyl]benzoic acid] | 
